Measurements: ChEMBL document CHEMBL4229350, “Antimicrobial activity and self-assembly behavior of antimicrobial peptide chensinin-1b with lipophilic alkyl tails” (Eur J Med Chem, 2018)
≈ marks a conversion by molar mass, not a printed value. Calls of active or inactive are those of the source. The rule behind the calls is not given here. Peptide text beside a SMILES is read from it. * marks the point of attachment. Lauroyl = CCCCCCCCCCCC(=O)*

Tests used:
[1] = system: Staphylococcus aureus; test: Antimicrobial activity against Staphylococcus aureus AS 1.72 assessed as induction of outer membrane permeabilization by measuring NPN uptake up to 50 uM by fluorescence assay; format: functional, organism-based
[2] = system: Escherichia coli; test: Antimicrobial activity against Escherichia coli AS 1.349 assessed as induction of outer membrane permeabilization by measuring NPN uptake up to 50 uM by fluorescence assay; format: functional, organism-based
[3] = system: U-937; test: Antiinflammatory activity in human U937 cells assessed as inhibition of LPS-induced IL-6 production after 24 hrs by ELISA; format: functional, cell-based
[4] = system: Lipopolysaccharide (LPS); test: Binding affinity to Escherichia coli 0111:B4 LPS by ITC method
[5] = system: U-937; test: Antiinflammatory activity in human U937 cells assessed as inhibition of LPS-induced IL-6 production at 6.25 uM after 24 hrs by ELISA relative to control; format: functional; conditions: U-937, 24 h
[6] = system: U-937; test: Antiinflammatory activity in human U937 cells assessed as inhibition of LPS-induced TNF-alpha production after 24 hrs by ELISA; format: functional, cell-based
[7] = system: Lipid bilayer; test: Induction of membrane permeabilization in calcein loaded PG/CL large unilamellar vesicles assessed as calcein leakage at 6 uM after 15 mins by fluorescence assay relative to control
[8] = system: Enterococcus faecium; test: Antimicrobial activity against Enterococcus faecium CGMCC 1.2334 after 18 hrs by micro dilution method; format: functional; conditions: CGMCC 1.2334, 18 h
[9] = system: MCF7; test: Cytotoxicity against human MCF7 cells assessed as reduction in cell viability after 1 hr by MTT assay; format: functional, cell-based; conditions: MCF7, 1 h
[10] = system: Staphylococcus aureus; test: Antimicrobial activity against Staphylococcus aureus AS 1.72 assessed as induction of outer membrane permeabilization by measuring NPN uptake by fluorescence assay; format: functional, organism-based
[11] = system: Staphylococcus aureus; test: Antimicrobial activity against Staphylococcus aureus AS 1.72 assessed as induction of bacterial cytoplasmic membrane depolarization at 2 times MIC after 5 mins by diSC3-5 dye-based fluorescence assay; format: functional, organism-based
[12] = system: Lipid bilayer; test: Induction of membrane permeabilization in calcein loaded PG/CL large unilamellar vesicles assessed as calcein leakage at 3 uM after 10 mins by fluorescence assay relative to control
[13] = system: Lipid bilayer; test: Induction of membrane permeabilization in calcein loaded PG/CL/PE large unilamellar vesicles assessed as calcein leakage at 6 uM after 15 mins by fluorescence assay relative to control
[14] = system: Escherichia coli; test: Antimicrobial activity against Escherichia coli AS 1.349 after 18 hrs by micro dilution method; format: functional; conditions: AS 1.349, 18 h
[15] = Cytotoxicity against human U937 cells assessed as cell viability at 3.13 to 12.6 uM after 1 hr by MTT assay relative to control; format: cell-based, U-937; conditions: read-out: Activity
[16] = system: U-937; test: Antiinflammatory activity in human U937 cells assessed as inhibition of LPS-induced TNF-alpha production at 3.13 uM after 24 hrs by ELISA relative to control; format: functional; conditions: U-937, 24 h
[17] = system: HeLa; test: Cytotoxicity against human HeLa cells assessed as reduction in cell viability after 1 hr by MTT assay; format: functional, cell-based
[18] = system: Lipopolysaccharide (LPS); test: Binding affinity to Escherichia coli 0111:B4 LPS assessed as equilibrium association constant by ITC method
[19] = Hemolytic activity against human erythrocytes after 1 hr; format: ADME, cell-based, Erythrocyte
[20] = system: Lipid bilayer; test: Induction of membrane permeabilization in calcein loaded PG/CL/PE large unilamellar vesicles assessed as calcein leakage at 3 uM after 10 mins by fluorescence assay relative to control
[21] = system: Bacillus cereus; test: Antimicrobial activity against Bacillus cereus AS 1.126 after 18 hrs by micro dilution method; format: functional; conditions: AS 1.126, 18 h
[22] = Self-assembly property assessed as diameter of monodispersed micelles at 1 mg/ml at pH 7 by TEM analysis; format: physicochemical
[23] = system: Staphylococcus aureus; test: Antimicrobial activity against Staphylococcus aureus AS 1.72 after 18 hrs by micro dilution method; format: functional; conditions: AS 1.72, 18 h
[24] = system: Lipopolysaccharide (LPS); test: Induction of LPS micelles disaggergation assessed as abundant particle size formation at 2 uM by DLS method
[25] = system: Pseudomonas aeruginosa; test: Antimicrobial activity against Pseudomonas aeruginosa CGMCC 1.860 after 18 hrs by micro dilution method; format: functional; conditions: CGMCC 1.860, 18 h
[26] = system: Escherichia coli; test: Antimicrobial activity against Escherichia coli AS 1.349 assessed as induction of outer membrane permeabilization by measuring NPN uptake by fluorescence assay; format: functional, organism-based
[27] = system: U-937; test: Antiinflammatory activity in human U937 cells assessed as inhibition of LPS-induced TNF-alpha production at 6.25 uM after 24 hrs by ELISA relative to control; format: functional; conditions: U-937, 24 h
[28] = system: Lipid bilayer; test: Induction of membrane permeabilization in calcein loaded LPS/PC/PG large unilamellar vesicles assessed as calcein leakage after 15 mins by fluorescence assay
[29] = system: Escherichia coli; test: Antimicrobial activity against Escherichia coli AS 1.349 assessed as induction of bacterial cytoplasmic membrane depolarization at 2 times MIC after 6 mins by diSC3-5 dye-based fluorescence assay; format: functional, organism-based
[30] = system: Lipid bilayer; test: Induction of membrane permeabilization in PG/CL large unilamellar vesicles assessed as blue shift at compound to lipid ratio of 60 by Tryptophan fluorescence spectroscopy
[31] = system: Enterococcus faecalis; test: Antimicrobial activity against Enterococcus faecalis CGMCC 1.595 after 18 hrs by micro dilution method; format: functional; conditions: CGMCC 1.595, 18 h
[32] = Self-assembly property assessed as diameter of monodispersed micelles at 1 mg/ml at pH 7 readjusted from pH 2 by TEM analysis; format: physicochemical
[33] = system: Lipid bilayer; test: Induction of membrane permeabilization in PC/cholesterol large unilamellar vesicles assessed as blue shift by Tryptophan fluorescence spectroscopy
[34] = system: A-375; test: Cytotoxicity against human A375 cells assessed as reduction in cell viability after 1 hr by MTT assay; format: functional, cell-based; conditions: A-375, 1 h
[35] = system: Lipid bilayer; test: Induction of membrane permeabilization in calcein loaded LPS/PC/PG large unilamellar vesicles assessed as calcein leakage at 50 uM after 15 mins by fluorescence assay relative to control
[36] = system: Lipid bilayer; test: Induction of membrane permeabilization in PG/CL/PE large unilamellar vesicles assessed as blue shift at compound to lipid ratio of 10 by Tryptophan fluorescence spectroscopy
[37] = system: U-937; test: Antiinflammatory activity in human U937 cells assessed as inhibition of LPS-induced IL-6 production at 12.6 uM after 24 hrs by ELISA relative to control; format: functional; conditions: U-937, 24 h
[38] = system: Lactococcus lactis; test: Antimicrobial activity against Streptococcus lactis AS 1.1690 after 18 hrs by micro dilution method; format: functional; conditions: AS 1.1690, 18 h
[39] = system: U-937; test: Antiinflammatory activity in human U937 cells assessed as inhibition of LPS-induced TNF-alpha production at 12.6 uM after 24 hrs by ELISA relative to control; format: functional; conditions: U-937, 24 h
[40] = system: U-937; test: Antiinflammatory activity in human U937 cells assessed as inhibition of LPS-induced IL-6 production at 3.13 uM after 24 hrs by ELISA relative to control; format: functional; conditions: U-937, 24 h
[41] = system: Lipid bilayer; test: Induction of membrane permeabilization in calcein loaded PC/cholesterol large unilamellar vesicles assessed as calcein leakage at 50 uM after 10 mins by fluorescence assay relative to control
[42] = system: Staphylococcus aureus; test: Antimicrobial activity against Staphylococcus aureus AS 1.72 assessed as induction of bacterial cytoplasmic membrane depolarization at 2 times MIC after 6 mins by diSC3-5 dye-based fluorescence assay; format: functional, organism-based
[43] = Self-assembly property assessed as diameter of monodispersed micelles at 1 mg/ml at pH 7 by DLS method; format: physicochemical
[44] = Self-assembly property assessed as diameter of monodispersed micelles at 1 mg/ml at pH 2 by DLS method; format: physicochemical

GENTAMICIN
Activity [1]: Active
Activity [2]: Active

CCCCCCCCCCCC(=O)N[C@@H](CO)C(=O)N[C@@H](CCCCN)C(=O)N[C@H](C(=O)N[C@@H](Cc1c[nH]c2ccccc12)C(=O)N[C@@H](CCCNC(=N)N)C(=O)N[C@@H](Cc1cnc[nH]1)C(=O)N[C@@H](Cc1c[nH]c2ccccc12)C(=O)N[C@@H](CCCNC(=N)N)C(=O)N[C@@H](CCCNC(=N)N)C(=O)N[C@@H](Cc1ccccc1)C(=O)N[C@@H](Cc1c[nH]c2ccccc12)C(=O)N[C@@H](Cc1cnc[nH]1)C(=O)N[C@@H](CCCNC(=N)N)C(=O)N[C@@H](C)C(=O)N[C@@H](Cc1cnc[nH]1)C(=O)N[C@@H](CCCNC(=N)N)C(=O)N[C@@H](CCCCN)C(=O)N[C@@H](CC(C)C)C(=O)O)C(C)C (Lauroyl-SKVWRHWRRFWHRAHRKL-OH)
inhibition [3]: Dose-dependent effect
Kd [4]: 7.35 µM
inhibition at 6.25 µM [5]: 29%
inhibition [6]: Dose-dependent effect
Activity [7]: 81%
MIC [8]: 1.56 µM (≈ 4.25 µg/mL)
IC50 [9]: 25.8 µM
Activity [10]: Dose-dependent effect
Activity [11]: Active
Activity [12]: 64%
Activity [13]: 54%
MIC [14]: 6.25 µM (≈ 17 µg/mL)
viability at 1 h, up to 12.6 µM [15]: 80%
inhibition at 3.13 µM [16]: 26%
IC50 [17]: 20.4 µM
Ka [18]: 136 mM⁻¹
HC50 at 1 h [19]: > 500 µM
Activity [20]: 42%
MIC [21]: 3.13 µM (≈ 8.53 µg/mL)
Activity [22]: 66 nm
MIC [23]: 3.13 µM (≈ 8.53 µg/mL)
Activity [24]: 350 nm
MIC [25]: 1.56 µM (≈ 4.25 µg/mL)
Activity [26]: Dose-dependent effect
inhibition at 6.25 µM [27]: 27%
Activity [28]: Dose-dependent effect
Activity [29]: Active
Activity [30]: 20 nm
MIC [31]: 3.13 µM (≈ 8.53 µg/mL)
Activity [32]: 108 nm
Activity [33]: inactive
IC50 [34]: 21.2 µM
Activity [35]: 58%
Activity [36]: 16 nm
inhibition at 12.6 µM [37]: 33%
MIC [38]: 3.13 µM (≈ 8.53 µg/mL)
inhibition at 12.6 µM [39]: 31%
inhibition at 3.13 µM [40]: 17%
Activity [41]: 20%

H-SKVWRHWRRFWHRAHRKL-OH
MIC [8]: 1.56 µM
IC50 [9]: 51.9 µM
Activity [10]: Dose-dependent effect
MIC [14]: 6.25 µM
IC50 [17]: 113 µM
HC50 at 1 h [19]: > 500 µM
MIC [21]: 3.13 µM
Activity [22]: 141 nm
MIC [23]: 3.13 µM
Activity [42]: Active
MIC [25]: 1.56 µM
Activity [26]: Dose-dependent effect
Activity [28]: Dose-dependent effect
Activity [43]: 60 nm
MIC [31]: 3.13 µM
IC50 [34]: > 125 µM
Activity [35]: 62%
Activity [44]: 3990 nm
MIC [38]: 3.13 µM
Activity [41]: 20%
